# According to US8466089B2, “Pyrazole compounds, process for their production and herbicides containing them” (Ishihara Sangyo Kaisha, Ltd., priority 2008, dated 2013):
# Key:
# Assay type in all cases: in vivo
# corn (Zea mays L.) = assay: Test Example 1, foliar treatment in upland pots; conditions: 20th to 22nd day after application, visual, read-out: Growth inhibition rate (%) Corn
# Summary of the method: (§1)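 Post-emergence foliar spray at defined leaf stages (corn 2.0 to 3.3, soybean primary leaf to 0.3, green foxtail 1.5 to 3.0, rice 1.2 to 2.5), in water at 500 liter per hectare with 0.1 vol % spreader. Visual growth inhibition 0–100% rated on day 20 to 22.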
# [1] = tested on: crabgrass (Digitaria sanguinalis L.); assay: Test Example 1, foliar treatment in upland pots; conditions: 20th to 22nd day after application, visual, read-out: Growth inhibition rate (%) Crabgrass
# [2] = tested on: green foxtail (Setaria viridis L.); assay: Test Example 1, foliar treatment in upland pots; conditions: 20th to 22nd day after application, visual, read-out: Growth inhibition rate (%) Green foxtail
# Summary of the method: as §1
# [3] = tested on: prickly sida (Sida spinosa L.); assay: Test Example 1, foliar treatment in upland pots; conditions: 20th to 22nd day after application, visual, read-out: Growth inhibition rate (%) Prickly sida
# [4] = tested on: redroot pigweed (Amaranthus retroflexus L.); assay: Test Example 1, foliar treatment in upland pots; conditions: 20th to 22nd day after application, visual, read-out: Growth inhibition rate (%) Redroot pigweed
# rice (Oryza sativa L.) = assay: Test Example 1, foliar treatment in upland pots; conditions: 20th to 22nd day after application, visual, read-out: Growth inhibition rate (%) Rice
# Summary of the method: as §1
# [5] = tested on: velvetleaf (Abutilon theophrasti MEDIC.); assay: Test Example 1, foliar treatment in upland pots; conditions: 20th to 22nd day after application, visual, read-out: Growth inhibition rate (%) Velvetleaf
# wheat (Triticum spp.) = assay: Test Example 1, foliar treatment in upland pots; conditions: 20th to 22nd day after application, visual, read-out: Growth inhibition rate (%) Wheat
# [6] = tested on: rice (Oryza sativa L.) (var.: Nihonbare); assay: Test Example 3, paddy field pot, transplanted rice; conditions: applied 4th day after transplantation, 20th to 23rd day after application, read-out: Growth inhibition rate (%) Rice
# Excerpt: Paddy field soil was put into a 1/1,000,000 hectare pot, and seeds of barnyardgrass (Echinochloa oryzicola vasing.) and Japanese bulrush (Scirpus juncoides) were sown and lightly covered with soil. Then, pot was left to stand in a greenhouse in a state irrigated to a water depth of from 0.5 to 1 cm, and next day or two days later, tubers of Japanese ribbon waparo (Sagittaria pygmaea) were planted. Then, the irrigated water depth was maintained to be from 3 to 4 cm, and when barnyardgrass and Japanese bulrush reached 0.5 leaf stage, and Japanese ribbon waparo reached primary leaf stage, a water diluted solution of a wettable powder or an emulsifiable concentrate of the compound of the present invention prepared in accordance with a conventional preparation method, was uniformly dropwise applied by a pipette so that the amount of active ingredients would be a prescribed amount. Further, paddy field soil was put into a 1/1,000,000 pot, followed by soil puddling to an irrigated water depth of from 3 to 4 cm. Next day, rice (Oryza sativa L.) (var.: Nihonbare) of two leaf stage was transplanted in a transplantation depth of 3 cm. On the 4th day after transplantation, the compound of the present invention was applied in the same manner as described above.
# On the 13th to 17th day after application, the state of growth of barnyardgrass, Japanese bulrush and Japanese ribbon waparo was visually observed, and on the 20th to 23rd day after application, the state of growth of rice was visually observed, and the herbicidal effect was evaluated by a growth inhibition rate (%) of 0 (equivalent to the non-treated area) to 100% (complete kill).
# [7] = tested on: soybean (Glycine max Merr.); assay: Test Example 1, foliar treatment in upland pots; conditions: 20th to 22nd day after application, visual, read-out: Growth inhibition rate (%) Soybean
# Summary of the method: as §1
Compound,inhibition at 7 g/ha (corn (Zea mays L.)),inhibition at 7 g/ha [1],inhibition at 7 g/ha [2],inhibition at 7 g/ha [3],inhibition at 7 g/ha [4],inhibition at 7 g/ha (rice (Oryza sativa L.)),inhibition at 7 g/ha [5],inhibition at 7 g/ha (wheat (Triticum spp.)),inhibition at 63 g/ha [6],inhibition at 7 g/ha [7]
"CCCn1ncc(C(=O)c2ccc(S(C)(=O)=O)c(OCCOC)c2C)c1OC(C)OC(=O)OCC (stereo not shown) [Compound No. 3-1, Ethyl 1-(1-n-propyl-4-(3-(2-methoxyethoxy)-2-methyl-4-(methylsulfonyl)benzoyl)-1H-pyrazol-5-yloxy)ethyl carbonate]",0%,70%,30%,0%,80%,0%,60%,0%,30%,–
"CCCn1ncc(C(=O)c2ccc(S(C)(=O)=O)c(OCCOC)c2C)c1O [Compound No. 7-1, (5-Hydroxy-1-n-propyl-1H-pyrazol-4-yl)(3-(2-methoxyethoxy)-2-methyl-4-(methylsulfonyl)phenyl)ketone]",0%,70%,70%,20%,70%,10%,75%,0%,20%,60%
"CCOC(=O)OC(C)Oc1c(C(=O)c2ccc(S(C)(=O)=O)c(OCCOC(C)C)c2C)cnn1C (stereo not shown) [Compound No. 1-5, Ethyl 1-(4-(3-(2-isopropoxyethoxy)-2-methyl-4-(methylsulfonyl)benzoyl)-1-methyl-1H-pyrazol-5-yloxy)ethyl carbonate]",10%,90%,80%,0%,80%,20%,80%,0%,30%,–
"COCCOc1c(S(C)(=O)=O)ccc(C(=O)c2cnn(C(C)C)c2OC(C)OC(=O)OC)c1C (stereo not shown) [Compound No. 4-1, 1-(1-Isopropyl-4-(3-(2-methoxyethoxy)-2-methyl-4-(methylsulfonyl)benzoyl)-1H-pyrazol-5-yloxy)ethyl methyl carbonate]",0%,90%,95%,60%,85%,80%,100%,0%,40%,95%
"COC(=O)OC(C)Oc1c(C(=O)c2ccc(S(C)(=O)=O)c(C(=O)OC)c2C)cnn1C (stereo not shown) [Compound No. 1-2, Methyl 3-(5-(1-(methoxycarbonyloxy)ethoxy)-1-methyl-1H-pyrazole-4-carbonyl)-2-methyl-6-(methylsulfonyl)benzoate]",0%,90%,100%,–,95%,70%,80%,0%,40%,95%
"Cc1c(C(=O)c2cnn(C)c2O)ccc(S(C)(=O)=O)c1OCCC(C)C [Compound No. 5-1, (5-Hydroxy-1-methyl-1H-pyrazol-4-yl)(3-(2-isopropylethoxy)-2-methyl-4-(methylsulfonyl)phenyl)ketone]",0%,50%,50%,40%,60%,0%,10%,0%,30%,–
"COCCOc1c(S(C)(=O)=O)ccc(C(=O)c2c(C)nn(C)c2OC(C)OC(=O)OC)c1C (stereo not shown) [Compound No. 1-6, 1-(4-(3-(2-Methoxyethoxy)-2-methyl-4-(methylsulfonyl)benzoyl)-1,3-dimethyl-1H-pyrazol-5-yloxy)ethyl methyl carbonate]",0%,90%,95%,70%,90%,70%,98%,0%,30%,80%
"COCCOc1c(S(C)(=O)=O)ccc(C(=O)c2cnn(C(C)C)c2O)c1C [Compound No. 8-1, (5-Hydroxy-1-isopropyl-1H-pyrazol-4-yl)(3-(2-methoxyethoxy)-2-methyl-4-(methylsulfonyl)phenyl)ketone]",0%,95%,90%,30%,90%,10%,80%,0%,60%,40%
"CCn1nc(C)c(C(=O)c2ccc(S(C)(=O)=O)c(OCCOC)c2C)c1O [Compound No. 6-1, (1-Ethyl-5-hydroxy-3-methyl-1H-pyrazol-4-yl)(3-(2-methoxyethoxy)-2-methyl-4-(methylsulfonyl)phenyl)ketone]",0%,50%,60%,0%,60%,20%,50%,0%,40%,–
"COCCOc1c(S(C)(=O)=O)ccc(C(=O)c2c(C)nn(C)c2O)c1C [Compound No. 5-2, (5-Hydroxy-1,3-dimethyl-1H-pyrazol-4-yl)(3-(2-methoxyethoxy)-2-methyl-4-(methylsulfonyl)phenyl)ketone]",0%,90%,100%,40%,90%,50%,70%,–,20%,70%
"CCc1nn(C)c(O)c1C(=O)c1ccc(S(C)(=O)=O)c(OCCOC)c1C [Compound No. 5-3, (5-Hydroxy-1-methyl-3-ethyl-1H-pyrazol-4-yl)(3-(2-methoxyethoxy)-2-methyl-4-(methylsulfonyl)phenyl)ketone]",0%,90%,90%,30%,95%,50%,80%,–,20%,0%
